Data published in ChEMBL document CHEMBL5257037, “Side Chain Cyclized Aromatic Amino Acids: Great Tools as Local Constraints in Peptide and Peptidomimetic Design” (J Med Chem, 2016).

Target: T1, Angiotensin-converting enzyme (Rattus norvegicus) (UniProt P47820)
T1 sequence (whole entry): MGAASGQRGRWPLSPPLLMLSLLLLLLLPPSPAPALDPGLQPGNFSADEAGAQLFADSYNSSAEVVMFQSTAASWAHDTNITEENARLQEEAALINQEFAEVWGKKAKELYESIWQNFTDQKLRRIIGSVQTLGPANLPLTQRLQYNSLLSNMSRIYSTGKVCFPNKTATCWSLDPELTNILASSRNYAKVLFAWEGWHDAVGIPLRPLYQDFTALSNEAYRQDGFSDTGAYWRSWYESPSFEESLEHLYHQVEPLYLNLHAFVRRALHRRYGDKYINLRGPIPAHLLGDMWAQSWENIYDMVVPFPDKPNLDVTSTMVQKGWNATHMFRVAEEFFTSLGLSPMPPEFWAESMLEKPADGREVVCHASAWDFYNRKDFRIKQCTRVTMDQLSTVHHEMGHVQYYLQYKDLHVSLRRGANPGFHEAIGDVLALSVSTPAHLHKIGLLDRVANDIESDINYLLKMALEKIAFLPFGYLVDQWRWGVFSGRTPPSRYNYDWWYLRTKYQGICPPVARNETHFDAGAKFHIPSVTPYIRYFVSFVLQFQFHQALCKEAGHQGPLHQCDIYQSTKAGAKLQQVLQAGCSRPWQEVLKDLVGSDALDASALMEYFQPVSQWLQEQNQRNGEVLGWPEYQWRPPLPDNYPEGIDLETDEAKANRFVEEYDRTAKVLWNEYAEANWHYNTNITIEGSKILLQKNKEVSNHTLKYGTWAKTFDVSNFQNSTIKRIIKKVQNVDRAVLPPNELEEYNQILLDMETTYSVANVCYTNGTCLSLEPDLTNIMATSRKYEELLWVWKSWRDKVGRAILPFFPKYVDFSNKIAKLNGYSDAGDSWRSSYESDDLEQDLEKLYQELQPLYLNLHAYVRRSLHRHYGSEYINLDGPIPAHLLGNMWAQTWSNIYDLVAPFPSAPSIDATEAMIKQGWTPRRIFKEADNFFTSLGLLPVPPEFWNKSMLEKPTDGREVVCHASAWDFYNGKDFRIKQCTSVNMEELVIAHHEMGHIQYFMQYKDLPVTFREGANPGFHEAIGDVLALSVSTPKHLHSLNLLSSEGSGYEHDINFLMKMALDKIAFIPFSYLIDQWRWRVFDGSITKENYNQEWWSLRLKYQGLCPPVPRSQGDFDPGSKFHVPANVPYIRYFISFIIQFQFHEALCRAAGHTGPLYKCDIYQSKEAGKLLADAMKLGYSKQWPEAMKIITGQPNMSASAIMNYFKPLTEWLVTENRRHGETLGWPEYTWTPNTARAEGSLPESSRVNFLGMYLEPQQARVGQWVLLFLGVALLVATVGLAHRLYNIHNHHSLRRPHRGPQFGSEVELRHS
Experiment: In vivo inhibition of ACE in iv dosed rat assessed as inhibition of Ang1 induced pressor response
Format: functional, organism-based

Row | ED50 | Compound
1 | 0.5 µmol/kg | C[C@H](NC(=O)[C@@H](CS)Cc1ccccc1)C(=O)N1CCC[C@H]1C(=O)O
2 | 0.15 µmol/kg | C[C@H](NC(=O)[C@@H](CS)Cc1ccccc1)C(=O)N1c2ccccc2C[C@H]1C(=O)O
3 | 0.02 µmol/kg | O=C(O)CN1C(=O)[C@@H](NC(=O)[C@@H](S)Cc2ccccc2)CCc2ccccc21
4 | 0.06 µmol/kg | C[C@H](NC(=O)[C@@H](S)Cc1ccccc1)C(=O)N1CCC[C@H]1C(=O)O
5 | 0.57 µmol/kg | C[C@H](NC(=O)[C@@H](CS)Cc1ccccc1)C(=O)N1Cc2ccccc2C[C@H]1C(=O)O

Target: T2, B2 bradykinin receptor (Homo sapiens) (UniProt P30411)
T2 sequence (whole entry): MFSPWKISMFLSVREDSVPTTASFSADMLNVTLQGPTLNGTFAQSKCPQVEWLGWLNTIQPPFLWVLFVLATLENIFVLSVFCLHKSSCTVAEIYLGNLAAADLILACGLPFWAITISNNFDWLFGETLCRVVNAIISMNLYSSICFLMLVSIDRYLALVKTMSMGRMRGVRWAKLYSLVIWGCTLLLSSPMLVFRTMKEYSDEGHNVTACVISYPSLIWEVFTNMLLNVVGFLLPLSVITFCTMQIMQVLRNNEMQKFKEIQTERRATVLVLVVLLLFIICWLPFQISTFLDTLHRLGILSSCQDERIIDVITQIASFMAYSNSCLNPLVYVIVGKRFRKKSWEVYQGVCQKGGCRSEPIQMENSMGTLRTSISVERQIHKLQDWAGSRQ
Experiment: Inhibition of B2 bradykinin receptor (unknown origin) at 10 mM relative to control

Row | inhibition | Compound
6 | 54% | C[C@@H](C(=O)N[C@@H](CCCNC(=N)N)C(=O)O)N1Cc2ccccc2C[C@@H](NC(=O)[C@H](CO)NC(=O)[C@H](Cc2ccccc2)NC(=O)CNC(=O)[C@@H]2CCCN2C(=O)[C@@H]2CCCN2C(=O)[C@@H](N)CCCNC(=N)N)C1=O
